Patent publication US20240300902A1, “NOVEL TRANSGLUTAMINASE 2 INHIBITOR AND USE THEREOF” (MD BIOLAB CO., LTD., priority 2021, published 2024)

What was measured:
[1] = system: MDA-MB231 cells; assay: Cell viability in breast cancer cell lines according to concentration; type: cell-based
Method: First breast cancer cells (MDA-MB-453, HCC-1806, HCC-1937: 10,000 cells/well, 100 μl) and second breast cancer cells (MDA-MB-231, MCF-7: 10,000 cells/well, 100 μl) were cultured in 96-well microplates.
After 24 hours, LDD3959 […] of various concentrations were added to each well, using a serum-free cell culture medium, and a reaction was allowed to proceed for 2 hours at 37° C. in the presence of 5% CO2. The culture medium was replaced with a culture medium containing 10% FSB, and a reaction was performed for 72 hours.
The existing culture medium was removed, and a new culture medium containing a water soluble tetrazolium salt was added. After that, the plate underwent a reaction at 37° C. in the presence of 5% CO2 for a duration in the range of 1 hour to 3 hours, and then absorbance was measured at 450 nm.

[2] = system: MDA-MB231 breast cancer cells; assay: Antitumor effects in in vivo breast cancerous tumors, MDA-MB231 xenograft; set-up: species or system mice
Method: To examine the antitumor effect of LDD3959, CanN.Cg-Foxn1nu/CrljOri mice were used as experimental animals. The mice were xenografted with MDA-MB231 breast cancer cells to induce tumors. The MDA-MB231 breast cancer cell-transplanted group was divided into two groups: an oral administration group and an intraperitoneal administration group. In this test, the oral administration was performed daily and the intraperitoneal administration was performed twice a week.

[3] = Toxicity by 3-week DRF oral administration; type: in vivo, ICR mice; conditions: once a day for 3 weeks, 500 to 2000 mg/kg
Method: LDD3959 was administered once a day for 3 weeks at each concentration (in the range of 500 to 2000 mg/kg), adverse events during the course of administration were checked, and the subjects were sacrificed the next day after the end of administration to perform weight measurement, hematological analysis, and biochemical analysis for each organ. In addition, the same experiment was performed on five ICR female mice and five ICR male mice to identify gender-dependent differences.

[4] = system: ACHN cancer cell population; assay: Sulforhodamine B (SRB) assay; type: cell-based, Human
Method: Cells (10,000 cells/well, 100 μL) were incubated in a 96-well microtiter plate. After 24 hours of the incubation, drug (100 μL) was added to each of the wells, and the culture was further incubated at 37° C. for 48 hours. The cells were then fixed in TCA (50 μL per well). The plates were incubated at 4° C. for a minimum of 1 hour or a maximum of 3 hours. The liquid was removed from the plates, and then the plate was washed five times with water and then dried at room temperature (RT) for about 12-24 hours. The fixed cells were stained with 100 μL SRB for 5 minutes at room temperature. After the staining, the plate was washed three times with 1% (w/v) glacial acetic acid and dried at room temperature for about 12-24 hours. Next, the SRB was then dissolved in 10 mM Trizma base, and the absorbance was measured at 515 nm. The effect of the drug was expressed as GI50 (50% growth inhibition).
Specifically, each of the LDD3732, LDD3922, and LDD3959 in concentrations of 10^−9, 10^−8, 10^−7, 10^−6, and 10^−5 M were tested, and the percentage decrease in the control value of SRB was measured using an ACHN cancer cell population.

[5] = system: ACHN cells; assay: Expression of cell proliferation inhibition-related and angiogenesis inhibition-related proteins, western blot; type: cell-based; conditions: various concentrations, 48 hours
Method: LDD3959 treatment at various concentrations was performed on ACHN cells, using a serum-free culture medium, and a reaction was performed at 37° C. in the presence of 5% CO2 for 2 hours. The culture medium was replaced with a culture medium containing 10% FBS, and a reaction was performed for 48 hours. The culture medium was removed, and PBS washing was performed. With the use of a solution obtained by adding a protease inhibitor cocktail and a phosphatase inhibitor cocktail to RIPA buffer (25 mM Tris*HCl pH 7.6, 150 mM NaCl, 1% NP-40, 1% sodium deoxycholate, and 0.1% SDS) was used to prepare whole cell lysates.
The proteins were quantified by Bicinchoninic acid (BCA) protein assay. The proteins were resolved by SDS-PAGE and transcribed into a polyvinylidene difluoride (PVDF) membrane. The membrane was then blocked with 5% BSA for 1 hour at room temperature, allowed to react with a labeled antibody overnight at 4° C., washed in PBS-T for 30 minutes at room temperature, and allowed to react with a horseradish peroxidase (HRP)-bound secondary antibody for 2 hours at room temperature. Finally, the membrane was washed in PBS-T for […] at room temperature and developed with enhanced chemiluminescence.

[6] = system: 430 kinds of kinases; assay: Kinase panel assay conducted by Eurofins; type: biochemical
Method: A total of 430 kinds of kinases were treated with 1 μM of LDD3959 through a kinase panel assay conducted by Eurofins to examine each activity.
The ATP concentration used in this experiment was 10 μM.

[7] = system: MDA-MB-231 cells; assay: Protein expression level change in TNBC breast cancer cells according to treatment time, western blot; type: cell-based; conditions: MDA-MB-231, 24, 48 and 72 hours
[8] = system: renal cancer cell lines; assay: Cell viability in various renal cancer cell lines (water soluble tetrazolium salt); type: cell-based; conditions: various concentrations, 48 hours
Method: Cells (20,000 cells/well, 100 μl) were incubated in a 96-well microplate. After 24 hours of the incubation, LDD3959 […] were added to each well in various concentrations by using a serum-free cell culture medium, and the cells were cultured at 37° C. in the presence of 5% CO2 for 2 hours. Next, the existing culture medium was replaced with a culture medium containing 10% FBS, and then incubation was carried out again for 48 hours. The existing culture medium was removed, and a new culture medium containing a water soluble tetrazolium salt was added. After that, the plate was incubated at 37° C. in the presence of 5% CO2 for a duration in the range of 1 hour to 3 hours, and then absorbance was measured at 450 nm.

With O=C1C(Cl)=C(Cl)C(=O)c2[nH]c(-c3ccc(Br)c(F)c3)nc21 [LDD3959, 2-(4-bromo-3-fluorophenyl)-5,6-dichloro-1H-benzo[d]imidazole-4,7-dione] the “effective concentration for apoptosis” value ([1]; MDA-MB231, highest expression level of transglutaminase 2, 72 hours) was “the effective concentration was lowest, and the efficacy was best”, the “acting concentration compared with conventional transglutaminase 2 inhibitors” value ([1]; breast cancer cell lines) was “lower concentrations than conventional transglutaminase 2 inhibitors” and the antitumor effect ([2]; intraperitoneal administration twice a week) was “concentration-dependent antitumor effects”. For the same compound, the antitumor effect ([2]; oral administration daily) was “concentration-dependent antitumor effects”, the adverse events [3] was “no specific adverse events occurred” and the “hematological and biochemical tests” value [3] was “no probable adverse events”. For the same compound, the deaths ([3]; female and male ICR mice) was “no deaths of the subjects occurred”, the GI50 ([4]; Homo sapiens, 48 hours, read-out: GI50 (50% growth inhibition)) was 2.5 µM and the “SRB measurement (percentage decrease in the control value of SRB)” value ([4]; concentration of 10^−5 M, 48 hours) was −11.87. For the same compound, the “decrease in cell counts” value ([4]; concentrations 10^−6 M or lower) was “no significant decrease in cell counts”, the Akt/mTOR signals [5] was “inhibiting Akt/mTOR45 signals” and the NFκB complexes [5] was “inhibiting NFκB complexes”. The “number of kinases that specifically showed inhibition” value ([6]; 430 kinases treated with 1 μM) was 4, the “inhibitory activity against the 4 kinases” value ([6]; highest concentration 1 μM, ATP 10 μM) was “very good inhibitory activity” and the AKT/mTOR signals [7] was “AKT/mTOR signals were inhibited”. For the same compound, the NFκB complexes [7] was “NFκB complexes were inhibited” and the “cell viability in renal cancer cells” value [8] was “cancer cells in a variety of renal cancer cells were killed”.
